ChEMBL document CHEMBL6120941, “Discovery of SIRT1-Activating Hydrogen Sulfide Donating Derivatives for Efficient Resistant of Myocardial Ischemic Injury” (J Med Chem, 2024)
Calls of active or inactive are those of the source. The rule behind the calls is not given here.

How the values were obtained:
H9c2 [1] = experiment: Cardioprotective activity against CoCl2-induced cellular hypoxia injury in rat H9c2 cells assessed as reduction in apoptosis at 5 to 10 uM incubated for 24 hrs by flow cytometry; type: functional, cell-based; conditions: dose 5-10 µM
H9c2 [2] = experiment: Cardioprotective activity against CoCl2-induced cellular hypoxia injury in rat H9c2 cells assessed as reduction in necrosis at 5 to 10 uM incubated for 24 hrs by flow cytometry; type: functional, cell-based; conditions: dose 5-10 µM
H9c2 [3] = experiment: Antioxidant activity against CoCl2-induced cellular hypoxia injury in rat H9c2 cells assessed as increase in Nrf2 level at 5 to 10 uM incubated for 24 hrs by Western blot analysis; type: functional, cell-based; conditions: dose 5-10 µM
Rattus norvegicus [4] = experiment: In vivo activation of SIRT1 in myocardial tissue of myocardial ischemia Sprague-Dawley rat model at 10 to 30 mg/kg, IG treated for 7 days consecutively followed by ISO administration daily for 2 days consecutively by Western blot analysis; type: functional, organism-based; conditions: dose 10-30 mg/kg, time 9.0 day
[5] = Induction of H2S release in PBS at pH 7.4 at 100 uM measured upto 60 mins by methylene blue method; type: functional
[6] = target: T1, NAD-dependent protein deacetylase sirtuin-1 (Rattus norvegicus) (UniProt A0A0G2JZ79); experiment: Activation of SIRT1 in CoCl2-induced cellular hypoxia injury in rat H9c2 cells at 5 to 10 uM incubated for 24 hrs by Western blot analysis; type: cell-based; conditions: filed as activator, dose 5-10 µM
T1 sequence (whole entry): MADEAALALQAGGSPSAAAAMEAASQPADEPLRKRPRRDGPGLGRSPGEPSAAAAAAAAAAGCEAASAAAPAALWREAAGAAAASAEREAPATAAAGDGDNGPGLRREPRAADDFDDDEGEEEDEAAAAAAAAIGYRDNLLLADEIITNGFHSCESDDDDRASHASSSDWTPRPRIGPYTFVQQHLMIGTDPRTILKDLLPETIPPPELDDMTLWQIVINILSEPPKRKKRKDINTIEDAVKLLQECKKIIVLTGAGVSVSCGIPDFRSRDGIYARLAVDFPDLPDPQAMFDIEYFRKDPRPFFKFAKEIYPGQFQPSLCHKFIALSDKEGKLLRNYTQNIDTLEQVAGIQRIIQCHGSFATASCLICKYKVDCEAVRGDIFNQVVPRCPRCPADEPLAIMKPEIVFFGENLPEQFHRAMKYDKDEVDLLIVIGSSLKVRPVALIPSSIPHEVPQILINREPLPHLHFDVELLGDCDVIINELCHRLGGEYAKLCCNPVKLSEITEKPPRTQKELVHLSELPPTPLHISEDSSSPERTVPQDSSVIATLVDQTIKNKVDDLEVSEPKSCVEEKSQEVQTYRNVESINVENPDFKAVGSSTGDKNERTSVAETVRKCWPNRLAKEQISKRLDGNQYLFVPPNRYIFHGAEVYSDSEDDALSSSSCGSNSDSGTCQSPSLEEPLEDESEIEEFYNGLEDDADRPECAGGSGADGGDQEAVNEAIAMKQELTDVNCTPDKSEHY

H9c2 [7] = experiment: Antioxidant activity against CoCl2-induced cellular hypoxia injury in rat H9c2 cells assessed as decrease in hypoxia-induced LDH release at 10 uM incubated for 24 hrs in presence of GSSG; type: functional, cell-based
[8] = target: T1, NAD-dependent protein deacetylase sirtuin-1 (Rattus norvegicus); experiment: Activation of SIRT1 in CoCl2-induced cellular hypoxia injury in rat H9c2 cells at 5 to 10 uM incubated for 24 hrs by immunofluorescence based analysis; type: cell-based; conditions: filed as activator, dose 5-10 µM
H9c2 [9] = experiment: Cardioprotective activity against CoCl2-induced cellular hypoxia injury in rat H9c2 cells assessed as ROS accumulation at 5 uM incubated for 24 hrs by DCFH-DA probe based analysis (reference value: 28.03 %); type: functional
H9c2 [10] = experiment: Cardioprotective activity against CoCl2-induced cellular hypoxia injury in rat H9c2 cells assessed as cell viability at 5 uM incubated for 24 hrs by CCK-8 assay (reference value: 51.80 +/- 2.58 %); type: functional; conditions: read-out: Activity
Rattus norvegicus [11] = experiment: Cardioprotective activity in myocardial ischemia Sprague-Dawley rat model assessed as myocardial infarction area at 30 mg/kg, IG treated for 7 days consecutively followed by ISO administration daily for 2 days consecutively by TTC staining based analysis (reference value: 32.65 %); type: functional; conditions: time 9 day
H9c2 [12] = experiment: Cardioprotective activity against CoCl2-induced cellular hypoxia injury in rat H9c2 cells assessed as increase in PGC1-alpha level at 5 to 10 uM incubated for 24 hrs by Western blot analysis; type: functional, cell-based; conditions: dose 5-10 µM
[13] = target: T2, NAD-dependent protein deacetylase sirtuin-1 (Homo sapiens) (UniProt Q96EB6); experiment: Activation of SIRT1 (unknown origin) using RHKK-ac-AMC as substrate incubated for 2 hrs by FDL assay relative to control; conditions: filed as activator
T2 sequence (whole entry): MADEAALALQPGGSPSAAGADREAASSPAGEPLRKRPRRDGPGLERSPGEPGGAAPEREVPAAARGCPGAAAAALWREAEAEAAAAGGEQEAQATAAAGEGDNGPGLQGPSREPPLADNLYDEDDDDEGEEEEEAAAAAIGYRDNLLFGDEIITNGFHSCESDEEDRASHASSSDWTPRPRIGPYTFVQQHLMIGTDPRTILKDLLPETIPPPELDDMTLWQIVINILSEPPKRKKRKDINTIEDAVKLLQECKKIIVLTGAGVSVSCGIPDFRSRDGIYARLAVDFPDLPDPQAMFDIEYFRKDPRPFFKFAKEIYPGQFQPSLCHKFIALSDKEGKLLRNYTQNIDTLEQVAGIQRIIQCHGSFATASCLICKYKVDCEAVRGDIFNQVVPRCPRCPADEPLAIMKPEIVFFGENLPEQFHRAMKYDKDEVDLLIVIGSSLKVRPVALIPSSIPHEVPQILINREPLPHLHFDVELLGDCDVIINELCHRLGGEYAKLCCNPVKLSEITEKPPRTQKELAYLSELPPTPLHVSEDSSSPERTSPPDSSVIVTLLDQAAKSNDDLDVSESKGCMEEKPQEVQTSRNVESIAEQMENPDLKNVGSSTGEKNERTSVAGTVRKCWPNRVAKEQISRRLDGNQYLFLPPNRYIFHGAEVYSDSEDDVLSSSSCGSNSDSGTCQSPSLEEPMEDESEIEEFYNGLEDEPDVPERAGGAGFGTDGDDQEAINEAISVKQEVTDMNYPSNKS

H9c2 [14] = experiment: Antioxidant activity against CoCl2-induced cellular hypoxia injury in rat H9c2 cells assessed as decrease in hypoxia-induced LDH release at 5 to 10 uM incubated for 24 hrs; type: functional, cell-based; conditions: dose 5-10 µM
H9c2 [15] = experiment: Induction of H2S release in rat H9c2 cells incubated for 24 hrs by fluorescence based imaging analysis; type: functional, cell-based; conditions: dose 0.625-10 µM
H9c2 [16] = experiment: Cardioprotective activity against CoCl2-induced cellular hypoxia injury in rat H9c2 cells assessed as increase in hypoxia-reduced ATP production in mitochondria at 5 to 10 uM incubated for 24 hrs by bioluminescence assay; type: functional, cell-based; conditions: dose 5-10 µM
[17] = target: T1, NAD-dependent protein deacetylase sirtuin-1 (Rattus norvegicus); experiment: Activation of SIRT1 in CoCl2-induced cellular hypoxia injury in rat H9c2 cells at 10 uM incubated for 24 hrs in presence of GSSG by immunofluorescence based analysis; type: cell-based
H9c2 [18] = experiment: Cardioprotective activity against CoCl2-induced cellular hypoxia injury in rat H9c2 cells assessed as preservation of nuclear morphology at 5 to 10 uM incubated for 24 hrs by Hoechst 33258 nuclear staining based analysis; type: functional, cell-based; conditions: dose 5-10 µM

SMILES: C=CCSSCCC(=O)O[C@H]1CC[C@]2(C)[C@H]3C[C@@H](O)[C@@H]4[C@@H]([C@]5(C)CC[C@@H](C(C)(C)O)O5)CC[C@@]4(C)[C@]3(C)CC[C@H]2C1(C)C
- Activity (H9c2 [1]): Active
- Activity (H9c2 [2]): Active
- Activity (H9c2 [3]): Active
- Activity (Rattus norvegicus [4]): Active
- Activity [5]: Active
- Activity [6]: Active
- Activity (H9c2 [7]): inactive
- Activity [8]: Active
- Activity (H9c2 [9]): 6.38%
- viability at 5 µM (H9c2 [10]): 94.2%
- Activity (Rattus norvegicus [11]): 13.24%
- Activity (H9c2 [12]): Active
- Activity [13]: 177%
- Activity (H9c2 [14]): Active
- Activity (H9c2 [15]): Dose-dependent-effect
- Activity (H9c2 [16]): Active
- Activity [17]: inactive
- Activity (H9c2 [18]): Active
